In patent US7491489B2 (priority 2004, dated 2009):
Values after ≈ are worked out from the molar mass of the structure shown.

Assays:
[1] = tested on: SARS-CoV GZ50 strain
[2] = tested on: FRhK-4 cells
[3] = tested on: SARS-CoV GZ50 strain; assay type: cell-based

CC[C@H](C)[C@H](NC(=O)CNC(=O)[C@H](CC(C)C)NC(=O)[C@@H]1CCCN1C(=O)[C@H](CC(C)C)NC(=O)[C@H](CCCCN)NC(=O)[C@@H](N)Cc1ccccc1)C(=O)N[C@@H](CC(N)=O)C(=O)N[C@H](C(=O)N[C@H](C(=O)N[C@@H](CC(N)=O)C(=O)N[C@@H](Cc1ccccc1)C(=O)N[C@@H](CCCNC(=N)N)C(=O)N[C@@H](C)C(=O)N[C@H](C(=O)N[C@@H](CC(C)C)C(=O)N[C@H](C(=O)N[C@@H](C)C(=O)N[C@@H](Cc1ccccc1)C(=O)N[C@@H](CO)C(=O)O)[C@@H](C)O)[C@@H](C)CC)[C@@H](C)O)[C@@H](C)CC [P1]
IC90 (peptide concentration that reduced the viral titer by 90% relative to untreated control) [1]: >500 µg/mL

CC[C@H](C)[C@H](NC(=O)CNC(=O)[C@H](CO)NC(=O)[C@H](CC(C)C)NC(=O)[C@H](C)NC(=O)[C@H](CCCNC(=N)N)NC(=O)[C@H](CC(N)=O)NC(=O)[C@H](CC(C)C)NC(=O)[C@H](CCC(N)=O)NC(=O)[C@@H](NC(=O)[C@H](CS)NC(=O)[C@H](Cc1ccccc1)NC(=O)[C@H](CO)NC(=O)CNC(=O)[C@H](Cc1ccc(O)cc1)NC(=O)[C@@H](N)CCC(N)=O)[C@@H](C)O)C(=O)N[C@@H](C)C(=O)N[C@@H](C)C(=O)N[C@@H](CCC(=O)O)C(=O)N[C@@H](CCC(N)=O)C(=O)O [P8]
IC90 (peptide concentration that reduced the viral titer by 90% relative to untreated control) [1]: 24.9 µg/mL (≈ 11.5 µM)
Cytotoxic effects on peptide-treated cells [2]: None of the 10 peptide-treated cells exhibited cytotoxic effects

CC[C@H](C)[C@H](NC(=O)[C@H](C)NC(=O)[C@@H](NC(=O)[C@H](CO)NC(=O)[C@@H](NC(=O)[C@H](CC(=O)O)NC(=O)[C@@H](NC(=O)[C@H](CS)NC(=O)[C@H](CC(N)=O)NC(=O)[C@@H](NC(=O)[C@H](CC(=O)O)NC(=O)[C@H](CCC(N)=O)NC(=O)[C@@H](N)Cc1ccc(O)cc1)C(C)C)[C@@H](C)O)C(C)C)[C@@H](C)O)C(=O)N[C@@H](Cc1c[nH]cn1)C(=O)N[C@@H](C)C(=O)N[C@@H](CC(=O)O)C(=O)N[C@@H](CCC(N)=O)C(=O)N[C@@H](CC(C)C)C(=O)N[C@H](C(=O)N1CCC[C@H]1C(=O)O)[C@@H](C)O [P6]
IC90 (peptide concentration that reduced the viral titer by 90% relative to untreated control) [1]: 113.0 µg/mL (≈ 51.6 µM)
Released viral titer relative to untreated control [1]: 18 % of the control
Intracellular viral RNA levels [3]: reduced

CC[C@H](C)[C@H](NC(=O)[C@H](CO)NC(=O)[C@H](Cc1ccccc1)NC(=O)[C@H](CC(N)=O)NC(=O)[C@@H](NC(=O)[C@@H]1CCCN1C(=O)[C@@H](NC(=O)[C@H](C)NC(=O)[C@@H](NC(=O)[C@@H](NC(=O)[C@H](CC(N)=O)NC(=O)[C@H](CC(N)=O)NC(=O)[C@@H](N)CO)[C@@H](C)O)[C@@H](C)CC)[C@@H](C)CC)[C@@H](C)O)C(=O)N[C@@H](CO)C(=O)N[C@H](C(=O)N[C@H](C(=O)N[C@H](C(=O)N[C@@H](CCC(=O)O)C(=O)N[C@H](C(=O)N[C@@H](CCSC)C(=O)O)C(C)C)[C@@H](C)O)[C@@H](C)O)[C@@H](C)CC [P7]
IC90 (peptide concentration that reduced the viral titer by 90% relative to untreated control) [1]: >500 µg/mL

CC[C@H](C)[C@H](NC(=O)CN)C(=O)NCC(=O)N[C@H](C(=O)N[C@H](C(=O)N[C@@H](CCC(N)=O)C(=O)N[C@@H](CC(N)=O)C(=O)N[C@H](C(=O)N[C@@H](CC(C)C)C(=O)N[C@@H](Cc1ccc(O)cc1)C(=O)N[C@@H](CCC(=O)O)C(=O)N[C@@H](CC(N)=O)C(=O)N[C@@H](CCC(N)=O)C(=O)N[C@@H](CCCCN)C(=O)N[C@@H](CCC(N)=O)C(=O)N[C@H](C(=O)N[C@@H](C)C(=O)N[C@@H](CC(N)=O)C(=O)N[C@@H](CCC(N)=O)C(=O)N[C@@H](Cc1ccccc1)C(=O)O)[C@@H](C)CC)C(C)C)[C@@H](C)O)C(C)C [P9]
IC90 (peptide concentration that reduced the viral titer by 90% relative to untreated control) [1]: >500 µg/mL

CC[C@H](C)[C@H](NC(=O)[C@@H](NC(=O)CNC(=O)[C@H](CC(N)=O)NC(=O)[C@H](CCC(=O)O)NC(=O)[C@H](CC(=O)O)NC(=O)[C@H](Cc1ccc(O)cc1)NC(=O)[C@H](CCCCN)NC(=O)[C@H](CC(C)C)NC(=O)[C@H](CCSC)NC(=O)[C@H](Cc1ccccc1)NC(=O)[C@@H](NC(=O)[C@@H](NC(=O)[C@@H]1CCCN1)[C@@H](C)O)[C@@H](C)O)[C@@H](C)O)C(=O)N[C@H](C(=O)N[C@@H](CC(=O)O)C(=O)N[C@@H](C)C(=O)N[C@H](C(=O)N[C@@H](CC(=O)O)C(=O)N[C@@H](CS)C(=O)O)C(C)C)[C@@H](C)O [P2]
IC90 (peptide concentration that reduced the viral titer by 90% relative to untreated control) [1]: 112.5 ± 26.3 µg/mL (≈ 50.3 µM)
Released viral titer relative to untreated control [1]: 18 % of the control
Intracellular viral RNA levels [3]: reduced

CC[C@H](C)[C@H](NC(=O)CNC(=O)[C@H](CO)NC(=O)[C@@H](NC(=O)[C@@H](NC(=O)[C@H](Cc1ccc(O)cc1)NC(=O)[C@H](Cc1ccccc1)NC(=O)CNC(=O)[C@H](Cc1ccc(O)cc1)NC(=O)[C@H](CC(=O)O)NC(=O)[C@H](CC(N)=O)NC(=O)[C@H](CC(C)C)NC(=O)[C@@H]1CCCN1C(=O)[C@H](Cc1c[nH]c2ccccc12)NC(=O)[C@H](Cc1ccc(O)cc1)NC(=O)[C@H](CS)NC(=O)[C@H](CC(N)=O)NC(=O)[C@H](CC(C)C)NC(=O)[C@H](C)NC(=O)[C@@H]1CCCN1)[C@@H](C)O)[C@@H](C)O)C(=O)O [P4]
IC90 (peptide concentration that reduced the viral titer by 90% relative to untreated control) [1]: >500 µg/mL

CC[C@H](C)[C@H](NC(=O)[C@H](CCC(=O)O)NC(=O)[C@H](CO)NC(=O)[C@@H](NC(=O)[C@H](CCCCN)NC(=O)[C@@H]1CCCN1C(=O)[C@H](CC(=O)O)NC(=O)[C@H](CCCNC(=N)N)NC(=O)[C@@H](NC(=O)[C@H](CO)NC(=O)[C@H](CC(=O)O)NC(=O)[C@@H](NC(=O)[C@H](Cc1ccccc1)NC(=O)[C@H](CC(=O)O)NC(=O)[C@H](CO)NC(=O)[C@@H](NC(=O)[C@H](CC(=O)O)NC(=O)[C@@H](N)CCCNC(=N)N)C(C)C)[C@@H](C)O)C(C)C)[C@@H](C)O)C(=O)N[C@@H](CC(C)C)C(=O)N[C@@H](CC(=O)O)C(=O)O [P5]
IC90 (peptide concentration that reduced the viral titer by 90% relative to untreated control) [1]: >500 µg/mL

CC(C)C[C@H](NC(=O)[C@@H](N)C(C)C)C(=O)N[C@@H](Cc1ccc(O)cc1)C(=O)N[C@@H](CC(N)=O)C(=O)N[C@@H](CO)C(=O)N[C@H](C(=O)N[C@@H](Cc1ccccc1)C(=O)N[C@@H](Cc1ccccc1)C(=O)N[C@@H](CO)C(=O)N[C@H](C(=O)N[C@@H](Cc1ccccc1)C(=O)N[C@@H](CCCCN)C(=O)N[C@@H](CS)C(=O)N[C@@H](Cc1ccc(O)cc1)C(=O)NCC(=O)N[C@H](C(=O)N[C@@H](CO)C(=O)N[C@@H](C)C(=O)N[C@H](C(=O)N[C@@H](CCCCN)C(=O)O)[C@@H](C)O)C(C)C)[C@@H](C)O)[C@@H](C)O [P3]
IC90 (peptide concentration that reduced the viral titer by 90% relative to untreated control) [1]: >500 µg/mL
